Experimental data from US8293909B2, “Compounds for the treatment of hepatitis C” (Bristol-Myers Squibb Company, priority 2008, dated 2012).

How the values were obtained:
[1] = target: T1, HCV NS5B RdRp genotype 1b (Hepatitis C virus genotype 1b, UniProt Q9WMX2); experiment: HCV NS5B RdRp enzyme assay (standard / modified); format: biochemical; conditions: Table 1; HCV NS5B genotype 1b
T1 construct: The protein was expressed with an 18 amino acid C-terminal truncation to enhance the solubility; made in house; host or cells: E. coli BL21(DE3), pET21a vector
Procedure: HCV NS5B RdRp cloning, expression, and purification. The cDNA encoding the NS5B protein of HCV, genotype 1b, was cloned into the pET21a expression vector. The protein was expressed with an 18 amino acid C-terminal truncation to enhance the solubility. The E. coli competent cell line BL21(DE3) was used for expression of the protein. Cultures were grown at 37° C. for ˜4 hours until the cultures reached an optical density of 2.0 at 600 nm. The cultures were cooled to 20° C. and induced with 1 mM IPTG. Fresh ampicillin was added to a final concentration of 50 μg/ml and the cells were grown overnight at 20° C.
Cell pellets (3 L) were lysed for purification to yield 15-24 mgs of purified NS5B. The lysis buffer consisted of 20 mM Tris-HCl, pH 7.4, 500 mM NaCl, 0.5% triton X-100, 1 mM DTT, 1 mM EDTA, 20% glycerol, 0.5 mg/ml lysozyme, 10 mM MgCl2, 15 ug/ml deoxyribonuclease I, and Complete™ protease inhibitor tablets (Roche). After addition of the lysis buffer, frozen cell pellets were resuspended using a tissue homogenizer. To reduce the viscosity of the sample, aliquots of the lysate were sonicated on ice using a microtip attached to a Branson sonicator. The sonicated lysate was centrifuged at 100,000×g for 1 hr at 4° C. and filtered through a 0.2 μm filter unit (Corning).
The protein was purified using three sequential chromatography steps: Heparin sepharose CL-6B, polyU sepharose 4B, and Hitrap SP sepharose (Pharmacia). The chromatography buffers were identical to the lysis buffer but contained no lysozyme, deoxyribonuclease I, MgCl2 or protease inhibitor and the NaCl concentration of the buffer was adjusted according to the requirements for charging the protein onto the column. Each column was eluted with a NaCl gradient which varied in length from 5-50 column volumes depending on the column type. After the final chromatography step, the resulting purity of the enzyme is >90% based on SDS-PAGE analysis. The enzyme was aliquoted and stored at −80° C.
Standard HCV NS5B RdRp enzyme assay. HCV RdRp genotype 1b assays were run in a final volume of 60 μl in 96 well plates (Costar 3912). The assay buffer is composed of 20 mM Hepes, pH 7.5, 2.5 mM KCl, 2.5 mM MgCl2, 1 mM DTT, 1.6 U RNAse inhibitor (Promega N2515), 0.1 mg/ml BSA (Promega R3961), and 2% glycerol. All compounds were serially diluted (3-fold) in DMSO and diluted further in water such that the final concentration of DMSO in the assay was 2%. HCV RdRp genotype 1b enzyme was used at a final concentration of 28 nM. A polyA template was used at 6 nM, and a biotinylated oligo-dT12 primer was used at 180 nM final concentration. Template was obtained commercially (Amersham 27-4110). Biotinylated primer was prepared by Sigma Genosys. 3H-UTP was used at 0.6 μCi (0.29 μM total UTP). Reactions were initiated by the addition of enzyme, incubated at 30° C. for 60 min, and stopped by adding 25 μl of 50 mM EDTA containing SPA beads (4 μg/μl, Amersham RPNQ 0007). Plates were read on a Packard Top Count NXT after >1 hr incubation at room temperature.
Modified HCV NS5B RdRp enzyme assay. A modified enzyme assay was performed essentially as described for the standard enzyme assay except for the following: The biotinylated oligo dT12 primer was precaptured on streptavidin-coated SPA beads by mixing primer and beads in assay buffer and incubating at room temperature for one hour. Unbound primer was removed after centrifugation. The primer-bound beads were resuspended in 20 mM Hepes buffer, pH 7.5 and used in the assay at final concentrations of 20 nM primer and 0.67 μg/μl beads. Order of addition in the assay: enzyme (14 nM) was added to diluted compound followed by the addition of a mixture of template (0.2 nM), 3H-UTP (0.6 μCi, 0.29 μM), and primer-bound beads, to initiate the reaction; concentrations given are final. Reactions were allowed to proceed for 4 hours at 30° C.
IC50 values for compounds were determined using seven different [I]. […]

[2] = tested on: HCV replicon cells; experiment: HCV replicon assay (FRET or luciferase readout); format: cell-based; conditions: Hepatitis C virus, Table 1
From the text: FRET Assay Preparation. To perform the HCV FRET screening assay, 96-well cell culture plates were used. The FRET peptide (Anaspec, Inc.) (Taliani et al., Anal. Biochem. 1996, 240, 60-67) contains a fluorescence donor, EDANS, near one end of the peptide and an acceptor, DABCYL, near the other end. The fluorescence of the peptide is quenched by […] resonance energy transfer (RET) between the donor and the acceptor, but as the NS3 protease cleaves the peptide the products are released from RET quenching and the fluorescence of the donor becomes apparent. The assay reagent was made as follows: 5× cell Luciferase cell culture lysis reagent from Promega (#E153A) diluted to 1× with dH2O, NaCl added to 150 mM final, the FRET peptide diluted to 20 μM final from a 2 mM stock.
To prepare plates, HCV replicon cells, with or without a Renilla luciferase reporter gene, were trypsinized and placed into each well of a 96-well plate with titrated test compounds added in columns 3 through 12; columns 1 and 2 contained a control compound (HCV protease inhibitor), and the bottom row contained cells without compound. The plates were then placed in a CO2 incubator at 37° C.
Assays. Subsequent to addition of the test compounds described above (FRET Assay Preparation), at various times the plate was removed and Alamar blue solution (Trek Diagnostics, #00-100) was added per well as a measure of cellular toxicity. After reading in a Cytoflour 4000 instrument (PE Biosystems), plates were rinsed with PBS and then used for FRET assay by the addition of 30 ul of the FRET peptide assay reagent described above (FRET Assay Preparation) per well. The plate was then placed into the Cytoflour 4000 instrument which had been set to 340 excite/490 emission, automatic mode for 20 cycles and the plate read in a kinetic mode. Typically, the signal to noise using an endpoint analysis after the reads was at least three-fold. Alternatively, after Alamar blue reading, plates were rinsed with PBS, 50 ul of DMEM (high glucose) without phenol red was added and plates were then used for luciferase assay using the Promega Dual-Glo Luciferase Assay System.
Compound analysis was determined by quantification of the relative HCV replicon inhibition and the relative cytotoxicity values. To calculate cytoxicity values, the average Alamar Blue fluorescence signals from the control wells were set as 100% non-toxic. The individual signals in each of the compound test wells were then divided by the average control signal and multiplied by 100% to determine […]. To calculate the HCV replicon inhibition values, an average background value was obtained from the two wells containing the highest amount of HCV protease inhibitor at the end of the assay period. These numbers were similar to those obtained from naïve Huh-7 cells.
The background numbers were then subtracted from the average signal obtained from the control wells and this number was used as 100% activity. The individual signals in each of the compound test wells were then divided by the averaged control values after background subtraction and multiplied by 100% to determine percent activity. EC50 values for a protease inhibitor titration were calculated as the concentration which caused a 50% reduction in FRET or luciferase activity. The two numbers generated for the compound plate, percent cytoxicity and percent activity were used to determine compounds of interest for further analysis.

T1 sequence (Q9WMX2 2420-2992): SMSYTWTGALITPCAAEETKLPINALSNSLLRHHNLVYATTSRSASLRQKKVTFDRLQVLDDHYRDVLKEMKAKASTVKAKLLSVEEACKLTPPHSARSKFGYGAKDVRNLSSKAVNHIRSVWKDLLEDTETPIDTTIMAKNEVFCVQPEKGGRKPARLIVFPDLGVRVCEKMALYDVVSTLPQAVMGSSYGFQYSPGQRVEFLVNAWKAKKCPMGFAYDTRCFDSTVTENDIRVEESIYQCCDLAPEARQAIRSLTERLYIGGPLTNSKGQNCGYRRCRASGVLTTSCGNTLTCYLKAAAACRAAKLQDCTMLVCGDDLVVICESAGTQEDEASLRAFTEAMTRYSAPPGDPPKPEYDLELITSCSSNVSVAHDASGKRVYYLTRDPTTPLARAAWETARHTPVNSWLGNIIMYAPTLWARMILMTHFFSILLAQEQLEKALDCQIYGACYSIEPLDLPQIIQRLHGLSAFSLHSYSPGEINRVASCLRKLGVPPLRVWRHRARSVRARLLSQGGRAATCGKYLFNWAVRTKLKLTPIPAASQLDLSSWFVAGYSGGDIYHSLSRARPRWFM

Row | SMILES | IC50 [1] [nM] | EC50 [2] [nM]
1 | CNC(=O)c1c(-c2ccccc2)nn2cc(I)ccc12 | > 10000 | > 10000
2 | CNC(=O)c1cccc(-c2ccc3c(C(=O)NC)c(-c4ccccc4)nn3c2)c1 | > 10000 | > 10000
3 | CNC(=O)c1c(-c2ccccc2)nn2cc(N3CCOC3=O)ccc12 | > 10000 | > 10000
4 | CNC(=O)c1c(-c2ccc(F)cc2)nn2cc(NS(C)(=O)=O)c(-c3cccc(C(=O)NC(C)(C)c4ccccc4)c3)cc12 | 2 to 250 | 1000 to 10000
5 | CNC(=O)c1c(-c2ccc(F)cc2)nn2cc(N(CC3CC3)S(C)(=O)=O)c(-c3cccc(C(=O)NC(C)(C)c4ccccc4)c3)cc12 | 2 to 250 | 2 to 250
6 | CNC(=O)c1c(-c2ccc(F)cc2)nn2ccc(-c3cc(C(=O)NC(C)(C)C)ccc3OC)cc12 | 2 to 250 | 250 to 1000
7 | CNC(=O)c1c(-c2ccc(F)cc2)oc2ncc(-c3cccc(C(=O)NC(C)(C)C)c3)cc12 | 2 to 250 | 2 to 250
8 | CNC(=O)c1c2cc(-c3cccc(C(=O)NC(C)(C)C)c3)ccc2nn1-c1ccc(F)cc1 | 1000 to 10000 | 1000 to 10000
9 | CNC(=O)c1c2cc(-c3cccc(C(=O)NC(C)(C)c4ccccc4)c3)ccc2nn1-c1ccc(F)cc1 | 2 to 250 | 250 to 1000
10 | CNC(=O)c1c2cc(-c3cccc(C(=O)NC4(c5ccccn5)CC4)c3)ccc2nn1-c1ccc(F)cc1 | 1000 to 10000 | 1000 to 10000
11 | CNC(=O)c1c(-c2ccc(F)cc2)nn2ccc(-c3cc(C(=O)NC4(c5ccc(F)cc5)CC4)ccc3C)cc12 | 2 to 250 | 2 to 250
12 | CCN(c1cn2nc(-c3ccc(F)cc3)c(C(=O)NC)c2cc1-c1ccccc1)S(C)(=O)=O | 2 to 250 | 250 to 1000
13 | CNC(=O)c1c2cc(-c3cc(C(=O)NC(C)(C)c4ccccc4)ccc3Cl)ccc2nn1-c1ccc(F)cc1 | 2 to 250 | 2 to 250
14 | CNC(=O)c1c2cc(-c3cc(C(=O)NC(C)(C)c4ccccc4)ccc3C)ccc2nn1-c1ccc(F)cc1 | 2 to 250 | 2 to 250
15 | CCN(c1cn2nc(-c3ccc(F)cc3)c(C(=O)NC)c2cc1C1CCCCC1)S(C)(=O)=O | 1000 to 10000 | 1000 to 10000
16 | CCN(c1cn2nc(-c3ccc(F)cc3)c(C(=O)NC)c2cc1C1CCCC1)S(C)(=O)=O | 250 to 1000 | 1000 to 10000
17 | CCN(c1cn2nc(-c3ccc(F)cc3)c(C(=O)NC)c2cc1C1CC1)S(C)(=O)=O | 2 to 250 | 2 to 250
18 | CCN(c1cn2nc(-c3ccc(F)cc3)c(C(=O)NC)c2cc1-c1cc(C(=O)NC2(c3ccc(F)cc3)CC2)ccc1C)S(C)(=O)=O | 2 to 250 | 2 to 250
19 | CNC(=O)c1c(-c2ccc(F)cc2)nn2ccc(-c3cc(C(=O)NC4(c5ccccc5)CCC4)ccc3C)cc12 | 2 to 250 | 2 to 250
20 | CNC(=O)c1c(-c2ccc(F)cc2)oc2ccc(-c3cc(C(=O)NC4(c5ccccn5)CC4)ccc3C)nc12 | 2 to 250 | 2 to 250
21 | CNC(=O)c1c(-c2ccc(F)cc2)nc2ccc(-c3ccc(-c4ccccc4)c(C(=O)NCC(C)C)c3)cn12 | > 500 | 250 to 1000
22 | CNC(=O)c1c(-c2ccc(F)cc2)nc2cc(C)c(-c3cc(C(=O)NC(C)(C)c4ccccc4)ccc3C)cn12 | 2 to 250 | 2 to 250
23 | CNC(=O)c1c(-c2ccc(F)cc2)oc2cnc(-c3cc(C(=O)NC4(c5ccccn5)CC4)ccc3C)cc12 | 2 to 250 | 2 to 250
24 | CNC(=O)c1c(-c2ccc(F)cc2)nn2c(C)cc(-c3cc(C(=O)NC4(c5ccccc5)CC4)ccc3C)cc12 | 2 to 250 | 2 to 250
25 | CNC(=O)c1c(-c2ccc(F)cc2)oc2ccc(-c3cccc(C(=O)NC4(c5ccccn5)CC4)c3)nc12 | 1000 to 10000 | 250 to 1000
26 | CNC(=O)c1c(-c2ccc(F)cc2)oc2cnc(-c3cccc(C(=O)NC4(c5ccccn5)CC4)c3)cc12 | 2 to 250 | 1000 to 10000
27 | CNC(=O)c1c(-c2ccc(F)cc2)nn2cc(F)c(-c3cc(C(=O)NC4(c5ccccc5)CC4)ccc3C)cc12 | 2 to 250 | 2 to 250
28 | CNC(=O)c1c(-c2ccc(F)cc2)nn2ccc(-c3cc(C(=O)NC4(c5nc(C)no5)CC4)ccc3C)c(F)c12 | 1000 to 10000 | > 10000
29 | CNC(=O)c1c(-c2ccc(F)cc2)nn2c(F)cc(-c3cc(C(=O)NC4(c5ccccc5)CC4)ccc3C)cc12 | 2 to 250 | 2 to 250
30 | CNC(=O)c1c(-c2ccc(F)cc2)nn2c(F)cc(-c3cc(C(=O)NC4(c5ccccn5)CC4)ccc3C)cc12 | 2 to 250 | 2 to 250
